Results from patent US12178981B2, “Drug administration method” (Takeda Pharmaceutical Company Limited, priority 2017, dated 2024).
Values belong to the compound of their own block, whether it stands above or below them.

Experiments:
brain tissue = conditions: ddY mice; nano-bubbles (about 400 nm) and 5-FU in combination; brain tissue exposed to ultrasound; cited from earlier work
[1] = BBB permeation experiment of fluorescein using BBB Kit, two nano-bubble waters (Example 4); format: in vitro ADME; conditions: rat, 2 hr, read-out: permeability coefficient (Papp)
Procedure: (§1) In addition, the fluorescein stock solution and the nano-bubble water prepared in Reference Example 2 were diluted with D-PBS such that the fluorescein concentration was 1 μM and nano-bubble density was 2×10^8 bubbles to prepare a culture solution B (volume: 500 μL) (n=2).
(§2) The permeability coefficient (Papp) was calculated from the measured fluorescein concentration, and the intracerebral transferability of fluorescein (BBB permeability) was calculated.

BBB Kit™ (RBT-24H) [2] = assay: as above; format: in vitro ADME; conditions: culture medium A (Reference Example 1) and culture medium B (Reference Example 2); ultrasound exposure at not less than 100 mW/cm^2
Procedure: as §1, §2

[3] = BBB permeation experiment of fluorescein using BBB Kit (Example 1); format: in vitro ADME; conditions: rat, 2 hr, read-out: permeability coefficient (Papp)
Procedure: (§3) Using this D-PBS, fluorescein (fluorescein sodium manufactured by Wako Pure Chemical Industries, Code No. 213-00092) was dissolved to prepare a fluorescein stock solution.
as §2
(§4) • fluorescence wavelength: 520 nm • excitation wavelength: 480 nm • flash number: 6 times

BBB Kit™ (RBT-24H) [4] = assay: as above; format: in vitro ADME; conditions: nano-bubble water (PS80); ultrasound exposure at not less than 100 mW/cm^2
Procedure: as §3, §2, §4

BBB = BBB permeation experiment of FITC dextran using rat (Example 6); conditions: ultrasound exposure using nano-bubble water of Reference Example 1
Procedure: The administration solution (0.4 mL) was injected into the rat tail vein at 1 mL/min using an injection tube and a needle of appropriate sizes (both sterilized disposable products). Using an ultrasound gene transfer apparatus (Sonitron GTS) manufactured by Nepa Gene Co., Ltd., exposure was performed for 60 sec at frequency 1 MHz and ultrasound intensity 2 W/cm^2 (n=3).
• fluorescence wavelength: 520 nm • excitation wavelength: 494 nm • flash number: 6 times

[5] = control: fluorescein 1 μM in D-PBS without nano-bubble water

Compound: O=c1[nH]cc(F)c(=O)[nH]1 [5-FU, fluorouracil]
duration for which transfer into the brain was observed (brain tissue): at least 24 hr

Papp at 2 h, 1 μM [1, 5]: 1.79 ×10⁻⁶ cm/s
Papp at 2 h, 1 μM ([1]; culture medium A (Reference Example 1 nano-bubble water, 2×10^8 bubbles), fluorescein 1 μM, ultrasound 100 mW/cm^2, 1 MHz, 10 sec): 11.1 ×10⁻⁶ cm/s
BBB permeability compared with the control (BBB Kit™ (RBT-24H) [2]): clear promotion of BBB permeability
Papp at 2 h, 1 μM [3, 5]: 0.574 ×10⁻⁶ cm/s
Papp at 2 h, 1 μM ([3]; fluorescein 1 μM + nano-bubble water (PS80) 2×10^8 bubbles, ultrasound 100 mW/cm^2, 1 MHz, 10 sec): 11.2 ×10⁻⁶ cm/s
Papp at 2 h, 1 μM ([3]; fluorescein 1 μM + nano-bubble water (PS80) 2×10^8 bubbles, ultrasound 250 mW/cm^2, 1 MHz, 10 sec): 10.6 ×10⁻⁶ cm/s
Papp at 2 h, 1 μM ([3]; fluorescein 1 μM + nano-bubble water (PS80) 2×10^8 bubbles, ultrasound 500 mW/cm^2, 1 MHz, 10 sec): 12.7 ×10⁻⁶ cm/s
BBB permeability compared with the control (BBB Kit™ (RBT-24H) [4]): clear promotion of BBB permeability
Compound: O=C1OC2(c3ccc(O)cc3Oc3cc(O)ccc32)c2ccccc21 [fluorescein, fluorescein sodium]

Compound: fluorescein isothiocyanate dextran [FITC dextran]
brain transferability compared with the control (BBB): promotion of brain transferability
